Data from EP3750528A1, “COMPOSITIONS FOR TREATING DYSTROPHIES AND MYOTONIA” (Nexien Biopharma, Inc., priority 2019, dated 2020).

How the values were obtained:
[1] = system: myotonia and myalgia; test: Previous treatments for myotonia and myalgia (case history)
[2] = system: dystrophic mdx mice; conditions: injection; mostly via activation of TRPV1 and TRPA1; cited from earlier work
[3] = Patient 6 (CLCN1-congenital myotonia)
[4] = Patient 2 (DM2), suspended also for risk of cardiac arrhythmias

Structure (SMILES) | myotonia under previous treatment [1, 3] | myotonia under previous treatment [1, 4] | myalgia under previous treatment ([1]; Patient 2 (DM2)) | other results
O=C(NCC1CCCCN1)c1cc(OCC(F)(F)F)ccc1OCC(F)(F)F (stereo not shown) [flecainid] | no relevant improvement of myotonia | – | – | –
C=C(C)[C@@H]1CCC(C)=C[C@H]1c1c(O)cc(CCCCC)cc1O [CBD, cannabidiol] | – | – | – | effect in dystrophic mdx mice [2]: promoted myotube formation and reduced inflammation
Nc1nnc(-c2cccc(Cl)c2Cl)c(N)n1 [lamotrigine] | no relevant improvement of myotonia | – | – | –
Cc1cccc(C)c1OCC(C)N (stereo not shown) [mexiletine] | improved the myotonia | inefficacy | – | drug-related side effect of previous treatment ([1]; Patient 6, resolved on drug discontinuation): severe major depression
CC(C)C[C@H](CN)CC(=O)O [pregabalin] | – | inefficacy | unsuccessfully treated | –
CC(C)Cc1ccc(C(C)C(=O)O)cc1 (stereo not shown) [ibuprofen] | – | – | unsuccessfully treated | –
Cc1ccc(C(=O)C(C)CN2CCCCC2)cc1 (stereo not shown) [tolperisone] | no relevant improvement of myotonia | – | – | –
NC(=O)N1c2ccccc2C=Cc2ccccc21 [carbamazepine] | no relevant improvement of myotonia | inefficacy | – | –
COc1ccccc1OCC(O)COC(N)=O (stereo not shown) [methocarbamol] | – | – | unsuccessfully treated | –
